Test results as given in patent US20180147171A1, “TRANS10:CIS12 ISOMER OF CONJUGATED LINOLEIC ACID AS A THERAPEUTIC AND PREVENTATIVE AGENT FOR HYPERTENSION SPECIFIC TO PREGNANCY” (Wisconsin Alumni Research Foundation, priority 2012, published 2018).

Legend:
[1] = test system: ovine uterine artery endothelial cells from pregnant sheep (P-UAEC); experiment: Fura-2 [Ca2+]i imaging: ATP stimulated Ca2+ burst number after VEGF pretreatment, with or without rescue agent; type: cell-based; settings: for CLA rescue of VEGF inhibitory effects on subsequent ATP burst number: t10:c12 CLA 50 uM added before VEGF165 10 ng/ml, compared with PP2 10 uM; for CLA rescue of VEGF inhibitory effects on subsequent ATP burst number / rescue from VEGF165 mediated inhibition of subsequent ATP stimulated Ca2+ bursts: 30 min; for rescue from VEGF165 mediated inhibition of subsequent ATP stimulated Ca2+ bursts: rescue agent 10 uM added right before VEGF165 10 ng/ml, second ATP 100 uM response as % of first
Source text: Studies in ovine uterine artery endothelial cells from pregnant sheep (P-UAEC). P-UAEC are a well-established cell model of endothelial cells isolated from uterine arteries and maintained in culture to passage 3 before freezing for future use.
Isolation of UAECs: Uterine arteries were obtained from Polypay and mixed Western breed nonpregnant sheep (n=4) and pregnant ewes (n=6) at 120-130 days of gestation during nonsurvival surgery, as described in the art. Procedures for animal handling and protocols for experimental procedures were approved by the University of Wisconsin-Madison Research Animal Care Committees of both the School of Medicine and Public Health and the College of Agriculture and Life Sciences and follow the recommended American Veterinary Medicine Association guidelines for humane treatment and euthanasia of laboratory farm animals.
Fura-2 [Ca^2+]i Imaging Studies: Uterine artery endothelial cells plated to 35-mm dishes with glass coverslip windows (MatTek Corp.) were grown to the required density (20%-100%, as described) and then loaded with 5 μM Fura-2 AM in Krebs buffer (125 mM NaCl, 5 mM KCl, 1 mM MgSO4, 1 mM KH2PO4, 6 mM glucose, 2 mM CaCl2, and 25 mM HEPES, pH 7.4) for 45 min. After rinsing and incubating a further 30 min to complete ester hydrolysis, Fura-2 loading was verified by viewing at 380-nm ultraviolet excitation on a Nikon inverted microscope (TS100; Melville, N.Y.). About 60 cells were then preselected and video recordings commenced using alternate excitation at 340 and 380 nm at 1-sec intervals and measuring emitted light using a digital camera. From the ratio of emission at 510 nm detected at the two excitation wavelengths, and by comparison to a standard curve established for the same settings using buffers of known free Ca^2+ concentration, the [Ca^2+]i was then calculated for individual cells in real time using InCyt Im2 software (Intracellular Imaging Inc., Cincinnati, Ohio).
Data in graphs is calculated comparing the cells repeated burst patterns before and after repeat treatment. ATP 100 μM 30 min followed by ATP 100 uM 30 min gives a marginal decline in number of Ca^2+ bursts (as defined in the art). However other agents activating protein kinases such as ERK and Src cause closure of CX43 and so loss of associated bursts. Therefore to perform the analysis, ATP stimulation is performed once to establish an uninhibited response for each cell. Then the inhibitory treatment under study is given (VEGF, 10 ng/ml or equivalent). After 30 minutes the second ATP treatment begins and burst response is expressed as % of the first ATP response. To then further test the protective or rescue effect of kinase inhibitors we follow the same protocol but add the rescue agent right before the VEGF. U0126 is an MEK/ERK pathway blocked, PP2 is a Src pathway blocker, and CLA is the test compound.

[2] = test system: CX43; experiment: Phosphorylation of CX43 at specific inhibitory sites in VEGF-treated uterine artery endothelial cells; type: cell-based, sheep; settings: cultured uterine artery endothelial cells from pregnant animals, VEGF inhibited, with rescue agent
[3] = test system: ERK and Src signaling; settings: cancer cells; earlier finding; cited from earlier work

With `CCCCCC/C=C/C=C\CCCCCCCC(=O)O` [c9:t11 CLA] the “CLA rescue of VEGF inhibitory effects on subsequent ATP burst number” value (“CLA rescue of VEGF inhibitory effects” below) ([1]; FIG. 4) was “have not achieved rescue”.
In the case of `CC(C)(C)n1nc(-c2ccc(Cl)cc2)c2c(N)ncnc21` [PP2], the “phosphorylation of CX43 at specific inhibitory sites” value [2] is reported as “reversal of the phosphorylation of CX43” and the “rescue from VEGF165 mediated inhibition of subsequent ATP stimulated Ca2+ bursts” value ([1]; FIG. 3) is reported as “can rescue the cells”.
For VEGF, the “effect of factor pretreatment on subsequent ATP stimulated Ca2+ bursts” value ([1]; 30 min pretreatment, 10 ng/ml, FIG. 3) was “inhibitory effects”.
For `N#CC(=C(/N)Sc1ccccc1N)/C(C#N)=C(\N)Sc1ccccc1N` [U0126], the “phosphorylation of CX43 at specific inhibitory sites” value [2] was “reversal of the phosphorylation of CX43” and the “rescue from VEGF165 mediated inhibition of subsequent ATP stimulated Ca2+ bursts” value ([1]; FIG. 3) was “can rescue the cells”.
In the case of `CCCCC/C=C\C=C\CCCCCCCCC(=O)O` [t10:c12 CLA, t10:c12 conjugated linoleic acid], the “CLA rescue of VEGF inhibitory effects” value ([1]; FIG. 4) is given as “can achieve the same rescue effect as PP2”, the “CLA rescue of VEGF inhibitory effects” value ([1]; FIG. 4, listed as CLA) is given as “improvement of function beyond rescue” and the “inhibition of ERK and Src kinase signaling pathways” value [3] is given as “can inhibit these pathways”.
